One series has as its target T1, Human 5-HT4(d) (Homo sapiens, UniProt Q13639).
T1 construct: expressed in transfected cells
Description: Agonist-induced cAMP elevation in human 5-HT4(d) transfected HEK293 cells. Format: cell-based. The settings on record: for Emax: HEK293, cAMP production normalized to the amount produced by 1,000 nM serotonin; for EC50: cAMP elevation (HTRF), human 5-HT4(d) transfected HEK293 cells. As for the experimental part: Human 5-HT4(d) transfected HEK293 cells were established in-house. The cells were grown at 37° C. and 5% CO2 in DMEM supplemented with 10% FCS, 20 mM HEPES (pH 7.4), 200 μg/ml hygromycin B (Gibco), 100 units/ml penicillin and 100 μg/ml streptomycin.
The cells were grown to 60-80% confluence. On the previous day before treatment with compounds dialyzed FCS (Gibco) was substituted for normal and the cells were incubated overnight.
Compounds were prepared in 96-well plates (12.5 μl/well). The cells were harvested with PBS/1 mM EDTA, centrifuged and washed with PBS. At the beginning of the assay, cell pellet was resuspended in DMEM supplemented with 20 mM HEPES, 10 μM pargyline (Sigma) and 1 mM 3-isobutyl-1-methylxanthine (Sigma) at the concentration of 1.6×10^5 cells/ml and left for 15 min at room temperature. The reaction was initiated by addition of the cells into plates (12.5 μl/well). After incubation for 15 min at room temperature, 1% Triton X-100 was added to stop the reaction (25 μl/well) and the plates were left for 30 minutes at room temperature. Homogenous time-resolved fluorescence-based cAMP (Schering) detection was made according to the manufacturer's instruction. ARVOsx multilabel counter (Wallac) was used to measure HTRF (excitation 320 nm, emission 665 nm/620 nm, delay time 50 μs, window time 400 μs).
Data was analyzed based on the ratio of fluorescence intensity of each well at 620 nm and 665 nm followed by cAMP quantification using cAMP standard curve. Enhancement of cAMP production elicited by each compound was normalized to the amount of cAMP produced by 1,000 nM serotonin (Sigma).
In general terms: Cyclic AMP is a second messenger, typically raised through Gs and lowered through Gi signalling.

T1 sequence (Q13639 1-360 isoform Q13639-3): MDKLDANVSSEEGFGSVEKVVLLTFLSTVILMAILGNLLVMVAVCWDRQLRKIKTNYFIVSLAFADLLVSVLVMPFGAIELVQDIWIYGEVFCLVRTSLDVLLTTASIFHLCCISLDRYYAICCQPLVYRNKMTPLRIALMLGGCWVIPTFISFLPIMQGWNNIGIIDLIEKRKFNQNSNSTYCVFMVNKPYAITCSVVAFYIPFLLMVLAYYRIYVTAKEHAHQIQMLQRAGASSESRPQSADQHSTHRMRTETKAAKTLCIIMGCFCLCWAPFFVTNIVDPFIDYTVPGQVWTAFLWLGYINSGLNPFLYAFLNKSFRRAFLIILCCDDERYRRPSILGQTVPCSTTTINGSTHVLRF

A word on the Emax: it is the maximal effect, on the per cent scale that the assay sets. Broadly, the EC50 is the concentration needed to bring the measured effect to its halfway point. Broadly, the melting point is the temperature of the solid-liquid transition. `O=C(O)C1(CN2CCC(COc3noc4cccc(O[C@H]5CC[C@@H](CO)CC5)c34)CC2)CCOCC1` [Example 46, 4-[(4-{[(4-{[cis-4-(Hydroxymethyl)cyclohexyl]oxy}-1,2-benzisoxazol-3-yl)oxy]methyl}piperidin-1-yl)-methyl]tetrahydro-2H-pyran-4-carboxylic acid] displayed a melting point of 197.2 °C. On Human 5-HT4(d), this molecule yielded an Emax of 45% and a concentration giving a half-maximal response (EC50) of 5.5 nM.
In the same order, the values of `CC(C)(CN1CCC(COc2noc3cccc(OCC4CCC4)c23)CC1)C(=O)O` [Example 19, 3-[4-({[4-(Cyclobutylmethoxy)-1,2-benzisoxazol-3-yl]oxy}methyl)piperidin-1-yl]-2,2-dimethyl-propanoic acid] are 139.8 °C, 45% and 0.16 nM.
As to `CC(C)COc1cccc2onc(OCC3CCN(CC4(C(=O)O)CCOCC4)CC3)c12` [Example 10, 4-[(4-{[(4-Isobutoxy-1,2-benzisoxazol-3-yl)oxy]methyl}piperidin-1-yl)methyl]tetrahydro-2H-pyran-4-carboxylic acid], the melting point is 153.4 °C. Also, on Human 5-HT4(d), the Emax amounted to 45% and the concentration for a half-maximal effect (EC50) is 3.1 nM.
In the same order, the values of `O=C(O)[C@H]1CC[C@H](CN2CCC(COc3noc4cccc(OCC(F)(F)F)c34)CC2)CC1` [Example 4, trans-4-{[4-({[4-(2,2,2-Trifluoroethoxy)-1,2-benzisoxazol-3-yl]oxy}methyl)-piperidin-1-yl]methyl}cyclohexanecarboxylic acid] are 158 °C, 77% and 1.2 nM.
In the same order, the values of `O=C(O)C1(CN2CCC(COc3noc4cccc(OCC(F)(F)F)c34)CC2)CCC1` [Example 2, 1-{[4-({[4-(2,2,2-Trifluoroethoxy)-1,2-benzisoxazol-3-yl]oxy}methyl)piperidin-1-yl]methyl}-cyclobutanecarboxylic acid] are 164.9 °C, 47% and 0.51 nM.
In the same order, the values of `O=C(O)C1(CN2CCC(COc3noc4cccc(OCC5CCC5)c34)CC2)CCOCC1` [Example 18, 4-{[4-({[4-(Cyclobutylmethoxy)-1,2-benzisoxazol-3-yl]oxy}methyl)piperidin-1-yl]methyl}tetrahydro-2H-pyran-4-carboxylic acid] are 175.5 °C, 52% and 2 nM.
The molecule `O=C(O)C1(CN2CCC(COc3noc4cccc(OCC5(CO)CCC5)c34)CC2)CCC1` [Example 50] displayed a melting point of 194.2 °C. On Human 5-HT4(d), this molecule showed an Emax of 50% and an EC50 of 98 nM.
Regarding `CC(C)COc1cccc2onc(OCC3CCN(CCC4(C(=O)O)CCOCC4)CC3)c12` [Example 13, 4-[2-(4-{[(4-Isobutoxy-1,2-benzisoxazol-3-yl)oxy]methyl}piperidin-1-yl)ethyl]tetrahydro-2H-pyran-4-carboxylic acid], the melting point was 213.8 °C. On Human 5-HT4(d), this molecule yielded an Emax of 54% and a half-maximal effective concentration (EC50) of 2.7 nM.
In the same order, the values of `O=C(O)C(F)(F)CN1CCC(COc2noc3cccc(OCC(F)(F)F)c23)CC1` [Example 6, 2,2-Difluoro-3-[4-({[4-(2,2,2-trifluoroethoxy)-1,2-benzisoxazol-3-yl]oxy}methyl)-piperidin-1-yl]propanoic acid] are 227.1 °C, 30% and 20 nM.
`O=C(O)[C@H]1CC[C@H](CN2CCC(COc3noc4cccc(O[C@H]5CC[C@@H](O)CC5)c34)CC2)CC1` [Example 44, trans-4-({4-[({4-[(cis-4-Hydroxycyclohexyl)oxy]-1,2-benzisoxazol-3-yl}oxy)methyl]piperidin-1-yl}-methyl)cyclohexanecarboxylic acid] showed a melting point of 182.7 °C. Moreover, at Human 5-HT4(d), the Emax came out at 55% and the half-maximal effective concentration (EC50) was found to be 2.4 nM.
Molecule `CC(C)COc1cccc2onc(OCC3CCN(CC4(C(=O)O)CCC4)CC3)c12` [Example 12, 1-[(4-{[(4-Isobutoxy-1,2-benzisoxazol-3-yl)oxy]methyl}piperidin-1-yl)methyl]cyclobutanecarboxylic acid] came in with a melting point of 168.8 °C. At Human 5-HT4(d), this molecule had a maximal response (Emax) of 45% and an EC50 of 2.3 nM.
On to `O=C(O)C1(CN2CCC(COc3noc4cccc(OC5CCOCC5)c34)CC2)CCCC1` [Example 28, 1-{[4-({[4-(Tetrahydro-2H-pyran-4-yloxy)-1,2-benzisoxazol-3-yl]oxy}methyl)piperidin-1-yl]methyl}-cyclopentanecarboxylic acid], for which the melting point came to 172.9 °C. Besides, at Human 5-HT4(d), the maximum response (Emax) amounted to 78% and the EC50 came out at 6.6 nM.
Turning to `O[C@@H]1CCC[C@@H]1Oc1cccc2onc(OCC3CCN(CC4(O)CCOCC4)CC3)c12` (relative stereo) [Example 36, 4-({4-[({4-[(cis-2-Hydroxycyclopentyl)oxy]-1,2-benzisoxazol-3-yl}oxy)methyl]piperidin-1-yl}methyl)-tetrahydro-2H-pyran-4-ol], the melting point came to 140.8 °C. In addition, at Human 5-HT4(d), the Emax worked out at 52% and the response was half-maximal at 1.9 nM (EC50).
For the molecule `O=C1CCCC1Oc1cccc2onc(OCC3CCN(CC4(O)CCOCC4)CC3)c12` (stereo not drawn) [Example 38, 2-{[3-({1-[(4-Hydroxytetrahydro-2H-pyran-4-yl)methyl]piperidin-4-yl}methoxy)-1,2-benzisoxazol-4-yl]oxy}cyclopentanone], the melting point is 133.1 °C. On Human 5-HT4(d), the Emax was 40% and it took 0.84 nM to reach a half-maximal effect (EC50).
Regarding `O=C(O)C1(CCN2CCC(COc3noc4cccc(OCC5CCC5)c34)CC2)CCOCC1` [Example 21, 4-{2-[4-({[4-(cyclobutylmethoxy)-1,2-benzisoxazol-3-yl]oxy}methyl)piperidin-1-yl]ethyl}tetrahydro-2H-pyran-4-carboxylic acid], the melting point was 223.2 °C. Also, at Human 5-HT4(d), the Emax came to 61% and the EC50 amounted to 5.3 nM.
As to `O=C(O)[C@H]1CC[C@H](CN2CCC(COc3noc4cccc(OC5CCOCC5)c34)CC2)CC1` [Example 29, trans-4-{[4-({[4-(Tetrahydro-2H-pyran-4-yloxy)-1,2-benzisoxazol-3-yl]oxy}methyl)piperidin-1-yl]methyl}cyclohexanecarboxylic acid], the melting point was 154.6 °C. At Human 5-HT4(d), this molecule returned an Emax of 70% and an EC50 of 11 nM.
In the same order, the values of `CC(C)COc1cccc2onc(OCC3CCN(C[C@H]4CC[C@H](C(=O)O)CC4)CC3)c12` [Example 14, trans-4-[(4-{[(4-Isobutoxy-1,2-benzisoxazol-3-yl)oxy]methyl}piperidin-1-yl)methyl]cyclohexane-carboxylic acid] are 103.3 °C, 41% and 2 nM.
Molecule `CC(C)COc1cccc2onc(NCC3CCN(CC4(C(=O)O)CCOCC4)CC3)c12` [Example 16, 4-[(4-{[(4-Isobutoxy-1,2-benzisoxazol-3-yl)amino]methyl}piperidin-1-yl)methyl]tetrahydro-2H-pyran-4-carboxylic acid] gave a melting point of 178.2 °C. On Human 5-HT4(d), the Emax stood at 55% and the response was half-maximal at 1.6 nM (EC50).
For `CC(C)COc1cccc2onc(OCCC3CCN(CC4(C(=O)O)CCOCC4)CC3)c12` [Example 15, 4-[(4-{2-[(4-isobutoxy-1,2-benzisoxazol-3-yl)oxy]ethyl}piperidin-1-yl)methyl]tetrahydro-2H-pyran-4-carboxylic acid] the same measures were 117.8 °C, 32% and 39 nM.
With `O=C(O)C1(CN2CCC(CNc3noc4cccc(OCC(F)(F)F)c34)CC2)CCOCC1` [Example 53, 4-{[4-({[4-(2,2,2-Trifluoroethoxy)-1,2-benzisoxazol-3-yl]amino}methyl)piperidin-1-yl]methyl}-tetrahydro-2H-pyran-4-carboxylic acid], the melting point stood at 171.9 °C. At Human 5-HT4(d), this molecule displayed an Emax of 59% and an EC50 of 2.8 nM.
In the same order, the values of `O=C(O)C1(CN2CCC(COc3noc4cccc(OCC5CCC5)c34)CC2)CCC1` [Example 20, 1-{[4-({[4-(Cyclobutylmethoxy)-1,2-benzisoxazol-3-yl]oxy}methyl)piperidin-1-yl]methyl}cyclo-butanecarboxylic acid] are 176.9 °C, 50% and 0.24 nM.
`O=C(O)C1(CN2CCC(COc3noc4cccc(OC5CCOCC5)c34)CC2)CCCCC1` [Example 30, 1-{[4-({[4-(Tetrahydro-2H-pyran-4-yloxy)-1,2-benzisoxazol-3-yl]oxy}methyl)piperidin-1-yl]methyl}-cyclohexanecarboxylic acid]: the melting point is 157.1 °C. Moreover, on Human 5-HT4(d), the Emax came to 88% and the concentration for a half-maximal effect (EC50) amounted to 19 nM.
